Laboratory results as given in patent US6797710B2, “Heterocyclic derivatives and their use as antithrombotic agents” (Akzo Nobel N.V., priority 1997, dated 2004).
Counter-ions that a name gives are not always drawn. Like-named read-outs stand apart in the source and are kept apart here. Blank lines part the entries; values can stand above or below the compound they belong to.

Tests used:
[1] = target: Bovine Factor Xa (Bos taurus, UniProt P00743); experiment: Anti-factor Xa assay (hydrolysis of chromogenic substrate S-2222); assay type: biochemical; conditions: substrate S-2222, TNP buffer, 37° C.
Excerpt: Activated Factor X (Xa) is a factor in the coagulation cascade. […] This assay for anti-Xa activity in a buffer system was used to assess the IC50-value of the test compound.
In general the followed procedure and test conditions were analogous to those of the anti-thrombin assay as described above. Differences are indicated below.

[2] = test system: Caco-2 cells
Method: (§1) In this in vitro model the transepithelial transport properties of a compound are determined in monolayers of a human intestinal cell-line (Caco-2) in terms of a permeability coefficient (apparent permeability).
(§2) Caco-2 cells were obtained from the American Type Culture Collection and were used in passage nrs 25 to 35. Cells were maintained at 37° C. in 75 cm^2 culture flasks (Nunc) in Dulbecco's Modified Eagle's Medium (DNEM) supplemented with 1% of non-essential amino acid solution (100×), 10% of heat-inactivated fetal bovine serum, penicillin (100 U/ml) and streptomycin (100 μg/ml) in an atmosphere of 95% of air and 5% of CO2. The pH of the medium was 7.4. For experiments cells were grown on Transwell-COL™ collagen treated cell culture filter inserts (Costar, Cambridge, Mass., USA) with a surface area of 0.33 cm^2 The seeding density was 6.3×10^5 cells/cm^2. Culture medium was added on each side of the filter. The growth of the cells and degree of confluency was checked every 2-3 days microscopically. Confluent monolayers were used on day 23-24 after seeding, at which time the transepithelial electrical resistance of the monolayers was at a stable value of approximately 260 Ω·cm^2. Permeability experiments were performed with compound concentrations of 0.1 mM or 1 mM in the apical compartment in Hanks' Balanced Salt Solution with or without 0.5% (w/v) of bovine serum albumin. At 1, 2 and 3 hours after addition of compound to the cells the filters were placed into fresh acceptor compartments. In this way three one-hour samples were obtained. Compound concentration was determined in samples from acceptor compartments and donor compartment by HPLC or by measuring anti-thrombin activity. Permeability experiments of each compound were performed with 4 different filters. Results shown in the Table are means of the permeability between 2 and 3 hours after the start of the experiment of at least 2 filters.

[3] = target: Human thrombin (Homo sapiens, UniProt P00734); experiment: Anti-thrombin assay (hydrolysis of chromogenic substrate S-2238); assay type: biochemical; conditions: substrate S-2238, TNP buffer pH 7.4, 37° C., read-out: Antithrombin activity: IC50
Excerpt: Thrombin (Factor IIa) is a factor in the coagulation cascade.
This assay for anti-thrombin activity in a buffer system was used to assess the IC50-value of a test compound.
Preparation of test and reference compound solutions
Each concentration is stepwise diluted with the vehicle to give concentrations of 10^−3, 10^−4 and 10^−5 mol·l^−1. The dilutions, including the stock solution, are used in the assay (final concentrations in the reaction mixture: 3·10^−3; 10^−3; 3·10^−4; 10^−4; 3·10^−5; 10^−5; 3·10^−6 and 10^−6 mol·l^−1, respectively).
At room temperature 0.075 ml and 0.025 ml test compound or reference compound solutions or vehicle are alternately pipetted into the wells of a microtiter plate and these solutions are diluted with 0.115 ml and 0.0165 ml TNP buffer, respectively. […] The plate is incubated (with shaking for 30 s) at 37° C.
All data are collected in an IBM personal computer using LOTUS-MEASURE. For each compound concentration (expressed in mol·l^−1 reaction mixture) and for the blank the absorbance is plotted versus the reaction time in min.
Evaluation of responses: For each final concentration the maximum absorbance was calculated from the assay plot.

[4] = in vitro; conditions: human, Caco-2
Method: as §1, §2

[5] = test system: Caco-2 cells; experiment: Caco-2 permeability; conditions: 0.1 mM or 1 mM apical; mean of permeability between 2 and 3 hours, at least 2 filters
Method: as §1, §2

[6] = Caco-2 permeability; conditions: human, Caco-2
Method: as §1, §2

Bovine Factor Xa, sequence (P00743 41-180 limits assumed): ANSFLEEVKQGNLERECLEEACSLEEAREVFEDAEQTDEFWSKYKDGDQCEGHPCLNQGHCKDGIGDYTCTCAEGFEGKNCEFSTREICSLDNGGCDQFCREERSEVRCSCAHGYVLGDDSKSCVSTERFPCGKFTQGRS
Bovine Factor Xa, sequence (P00743 234-492 limits assumed): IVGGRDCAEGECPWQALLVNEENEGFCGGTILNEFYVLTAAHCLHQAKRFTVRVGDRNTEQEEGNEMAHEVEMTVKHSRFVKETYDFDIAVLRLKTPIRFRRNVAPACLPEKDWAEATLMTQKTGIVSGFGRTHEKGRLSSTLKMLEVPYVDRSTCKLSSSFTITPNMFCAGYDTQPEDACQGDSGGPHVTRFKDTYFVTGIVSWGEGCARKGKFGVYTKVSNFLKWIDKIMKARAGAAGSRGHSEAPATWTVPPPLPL

- IC50 [3]: 1.44 µM
Compound: CC1CCN(C(=O)C(Cc2cc3c(N)nccc3s2)NS(=O)(=O)c2ccc3oc4ccccc4c3c2)CC1 (stereo not shown) [Example 32, 1-[3-(4-aminothieno[3,2c]pyridin-2-yl)-2-[[(2-dibenzofuranyl)sulfonyl]amino]-1-oxopropyl]-4-methylpiperidine hydrochloride]

- Caco-2 Papp (apparent permeability) [5]: 2.5 ×10⁻⁶ cm/s
Compound: Cl.Nc1nccc2sc(CC(NC(=O)CNS(=O)(=O)c3ccc4ccccc4c3)C(=O)N3CCCCC3)cc12 (stereo not shown) [Example 4, N-[1-[(4-Aminothieno[3,2c]pyridin-2-yl)methyl]-2-oxo-2-(1-piperidinyl)ethyl]-2-[(2-naphthalenylsulfonyl)amino]acetamide hydrochloride]

- IC50 [3]: 35 µM
Compound: CC1CCN(C(=O)C(Cc2cc3c(N)nccc3s2)NS(=O)(=O)CC23CCC(CC2=O)C3(C)C)CC1 [Example 30, 1-[3-(4-aminothieno[3,2c]pyridin-2-yl)-2-[[[1-(1R,4S)-(7,7-dimethyl-2-oxobicyclo[2,2,1]hept-1-yl)methyl]sulfonyl]amino]-1-oxopropyl]-4-methylpiperidine hydrochloride]

- Papp A→B [6]: 1.9 ×10⁻⁶ cm/s
Compound: Cl.Nc1nccc2cc(CC(NC(=O)CNS(=O)(=O)c3ccc4ccccc4c3)C(=O)N3CCCCC3)ccc12 (stereo not shown) [Example 2, N-[1-[(1-amino-6-isoquinolinyl)methyl]-2-oxo-2-(1-piperidinyl)ethyl]-2-[(2-naphthalenyl-sulfonyl)amino]acetamide hydrochloride]

- IC50 [3]: 0.53 µM
Compound: COc1ccc2ccc(S(=O)(=O)NC(Cc3cc4c(N)nccc4s3)C(=O)N3CCC(C)CC3)cc2c1 (stereo not shown) [Example 18, 1-[1-(4-aminothieno[3,2c]pyridin-2-yl)-2-[[(7-methoxy-2-naphthalenyl)sulfonyl]amino]-1-oxopropyl]-4-methylpiperidine hydrochloride]

The next lines start with the compound.

Compound: COCCN(C)C(=O)C(Cc1cc2c(N)nccc2s1)NS(=O)(=O)c1ccc2ccc(OC)cc2c1 (stereo not shown) [Example 26, 3-(4-aminothieno[3,2c]pyridin-2-yl)-N-(2-methoxyethyl)-2-[[(7-methoxy-2-naphthalenyl)-sulfonyl]amino]-N-methyl-propanamide hydrochloride]
- IC50 [1]: 14 µM

Compound: COC(=O)C(Cc1ccc2c(N)nccc2c1)NC(=O)CNS(=O)(=O)c1ccc2ccccc2c1 (stereo not shown) [Example 1, 3-(1-amino-6-isoquinolinyl)-2-[[2-[(2-naphthalenylsulfonyl)amino]acetyl]amino]propionic acid methyl ester hydrochloride]
- IC50 [1]: 48 µM

Compound: 1-[3-[3-(aminoiminomethyl)phenyl]-2-[(2-naphthalenyl-sulfonyl)amino]-1-oxopropyl]-4-(methylsulfonyl)piperazine [Pefa 1286]
- Caco-2 Papp (apparent permeability) [2]: 0.11 ×10⁻⁶ cm/s

Compound: Nc1nccc2cc(CC(NC(=O)[C@H](CO)NS(=O)(=O)c3ccc4ccccc4c3)C(=O)N3CCCCC3)ccc12 (stereo partly drawn) [Example 7, (2S)-N-[1-[(1-amino-6-isoquinolinyl)methyl]-2-oxo-2-(1-piperidinyl)ethyl]-3-hydroxy-2-[(2-naphthalenylsulfonyl)amino]propanamide hydrochloride]
- IC50 [3]: 6.8 µM

Compound: Cc1c(C)c(S(=O)(=O)NNC(=O)NC(Cc2ccc3c(N)nccc3c2)C(=O)N2CCCCC2)c(C)c2c1OC(C)(C)CC2 (stereo not shown) [Example 10, 3,4-dihydro-2,2,5,7,8-pentamethyl-2H-1-benzopyran-6-ylsulfonic acid 2-[[[1-[(1-amino-6-isoquinolinyl)methyl]-2-oxo-2-(1-pineridinyl)ethyl]amino]carbonyl]hydrazide hydrochloride]
- IC50 [3]: 1.1 µM

Compound: Cc1c(C)c(S(=O)(=O)NCC(=O)NC(Cc2ccc3c(N)nccc3c2)C(=O)N2CCCCC2)c(C)c2c1OC(C)(C)CC2.Cl (stereo not shown) [Example 5, N-[1-[(1-Amino-6-isoquinolinyl)methyl]-2-oxo-2-(1-piperidinyl)ethyl]-2-[[(3,4-dihydro-2,2,5,7,8-pentamethyl-2H-1-benzopyran-6-yl)sulfonyl]amino]acetamide hydrochloride]
- IC50 [3]: 28 µM
- Papp A→B [4]: 3.7 ×10⁻⁶ cm/s

Compound: COC(=O)C(Cc1cc2c(N)nccc2s1)NC(=O)CNS(=O)(=O)c1ccc2ccccc2c1 (stereo not shown) [Example 3, 3-(4-aminothieno[3,2c]pyridin-2-yl)-2-[[2-[(2-naphthalenylsulfonyl)amino]acetyl]amino]-propionic acid methyl ester hydrochloride]
- IC50 [1]: 29 µM
